The text below walks through data of ChEMBL document CHEMBL5465560, “Selectivity Literature for EUbOPEN Chemogenomic Library” (2024).

In assay [1] the test system is Proto-oncogene tyrosine-protein kinase receptor Ret (Homo sapiens), P07949 [V804L]. In words: (§1) Selectivity interaction (KinomeScan (DiscoverX)) EUB0000595a RET. Particulars: at 10 µM.
Assay [2] deals with Proto-oncogene tyrosine-protein kinase receptor Ret (Homo sapiens), P07949 [M918T]. The description is as §1. Particulars: at 10 µM.
Assay [3] concerns the target Proto-oncogene tyrosine-protein kinase receptor Ret (Homo sapiens, UniProt P07949). The description is as §1. Particulars: at 10 µM.
Assay [4] concerns the target Mitogen-activated protein kinase kinase kinase kinase 1 (Homo sapiens) (UniProt Q92918). In words: Selectivity interaction (ActivX KiNativ screen (ex vivo kinase selectivity in human PBMCs)) EUB0001619a MAP4K1. Particulars: PBMC, at 1 µM. It is filed as cell-based.
Assay [5] concerns the target Platelet-derived growth factor receptor beta (Homo sapiens, UniProt P09619). In words: Selectivity interaction (KinomeScan (DiscoverX)) EUB0000666a PDGFRB. To be noted: at 10 µM.
Assay [6] addresses T1, Phosphorylase b kinase gamma catalytic chain, liver/testis isoform (Homo sapiens) (UniProt P15735).
T1 sequence (whole entry): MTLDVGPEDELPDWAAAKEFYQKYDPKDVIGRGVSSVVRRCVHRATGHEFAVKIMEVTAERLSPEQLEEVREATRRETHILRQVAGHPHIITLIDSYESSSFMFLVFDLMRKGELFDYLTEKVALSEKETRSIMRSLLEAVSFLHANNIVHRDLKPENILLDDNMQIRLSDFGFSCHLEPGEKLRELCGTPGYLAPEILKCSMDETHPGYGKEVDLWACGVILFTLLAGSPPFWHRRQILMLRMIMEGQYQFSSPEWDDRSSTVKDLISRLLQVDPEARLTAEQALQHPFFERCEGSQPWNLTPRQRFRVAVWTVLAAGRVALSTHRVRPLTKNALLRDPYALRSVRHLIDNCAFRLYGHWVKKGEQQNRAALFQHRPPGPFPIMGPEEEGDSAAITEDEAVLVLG
In words: Selectivity interaction (KinomeScan (DiscoverX)) EUB0000607a PHKG2. Particulars: at 10 µM.

In assay [7] the test system is Tyrosine-protein kinase ABL1 (Homo sapiens), P00519 [Q252H]. Particulars: at 10 µM.
In assay [8] the target is Serine/threonine-protein kinase N1 (Homo sapiens, UniProt Q16512). In words: Selectivity interaction (Kinase panel (Invitrogen)) EUB0000639a PKN1. Particulars: at 200 nM.
Assay [9] addresses Phosphatidylinositol 3-kinase catalytic subunit type 3 (Homo sapiens, UniProt Q8NEB9). In words: Selectivity interaction (Kinase panel (Invitrogen)) EUB0000639a PIK3C3. To be noted: at 200 nM.
Assay [10] concerns the target Mitogen-activated protein kinase 1 (Homo sapiens, UniProt P28482). In words: Selectivity interaction (Kinase panel (DSF assay)) EUB0001559a MAPK1. A general note: In DSF a fluorescence change marks the thermal transition of the protein.
The target of assay [11] is Ribosomal protein S6 kinase beta-1 (Homo sapiens, UniProt P23443). In words: Selectivity interaction (KinomeScan (DiscoverX)) EUB0000045b RPS6KB1.
Chain of Ribosomal protein S6 kinase beta-1 (P23443 whole entry, looked up): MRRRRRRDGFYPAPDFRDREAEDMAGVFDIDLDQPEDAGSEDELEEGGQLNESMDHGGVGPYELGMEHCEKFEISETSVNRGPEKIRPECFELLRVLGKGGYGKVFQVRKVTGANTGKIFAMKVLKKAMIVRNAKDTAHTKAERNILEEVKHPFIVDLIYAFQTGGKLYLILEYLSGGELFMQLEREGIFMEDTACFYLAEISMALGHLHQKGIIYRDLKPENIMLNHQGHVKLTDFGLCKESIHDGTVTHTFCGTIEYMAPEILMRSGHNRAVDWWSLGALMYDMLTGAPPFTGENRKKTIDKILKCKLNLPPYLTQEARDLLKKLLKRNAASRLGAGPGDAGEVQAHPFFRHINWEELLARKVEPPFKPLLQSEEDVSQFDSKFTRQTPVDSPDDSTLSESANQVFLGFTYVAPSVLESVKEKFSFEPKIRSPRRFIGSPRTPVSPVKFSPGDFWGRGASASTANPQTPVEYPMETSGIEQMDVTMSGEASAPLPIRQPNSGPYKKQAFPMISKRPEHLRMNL
In assay [12] the target is Myosin-IIIa (Homo sapiens) (UniProt Q8NEV4). In words: Selectivity interaction (KinomeScan (DiscoverX)) EUB0000045b MYO3A.
Chain of Myosin-IIIa (Homo sapiens) (Q8NEV4 whole entry): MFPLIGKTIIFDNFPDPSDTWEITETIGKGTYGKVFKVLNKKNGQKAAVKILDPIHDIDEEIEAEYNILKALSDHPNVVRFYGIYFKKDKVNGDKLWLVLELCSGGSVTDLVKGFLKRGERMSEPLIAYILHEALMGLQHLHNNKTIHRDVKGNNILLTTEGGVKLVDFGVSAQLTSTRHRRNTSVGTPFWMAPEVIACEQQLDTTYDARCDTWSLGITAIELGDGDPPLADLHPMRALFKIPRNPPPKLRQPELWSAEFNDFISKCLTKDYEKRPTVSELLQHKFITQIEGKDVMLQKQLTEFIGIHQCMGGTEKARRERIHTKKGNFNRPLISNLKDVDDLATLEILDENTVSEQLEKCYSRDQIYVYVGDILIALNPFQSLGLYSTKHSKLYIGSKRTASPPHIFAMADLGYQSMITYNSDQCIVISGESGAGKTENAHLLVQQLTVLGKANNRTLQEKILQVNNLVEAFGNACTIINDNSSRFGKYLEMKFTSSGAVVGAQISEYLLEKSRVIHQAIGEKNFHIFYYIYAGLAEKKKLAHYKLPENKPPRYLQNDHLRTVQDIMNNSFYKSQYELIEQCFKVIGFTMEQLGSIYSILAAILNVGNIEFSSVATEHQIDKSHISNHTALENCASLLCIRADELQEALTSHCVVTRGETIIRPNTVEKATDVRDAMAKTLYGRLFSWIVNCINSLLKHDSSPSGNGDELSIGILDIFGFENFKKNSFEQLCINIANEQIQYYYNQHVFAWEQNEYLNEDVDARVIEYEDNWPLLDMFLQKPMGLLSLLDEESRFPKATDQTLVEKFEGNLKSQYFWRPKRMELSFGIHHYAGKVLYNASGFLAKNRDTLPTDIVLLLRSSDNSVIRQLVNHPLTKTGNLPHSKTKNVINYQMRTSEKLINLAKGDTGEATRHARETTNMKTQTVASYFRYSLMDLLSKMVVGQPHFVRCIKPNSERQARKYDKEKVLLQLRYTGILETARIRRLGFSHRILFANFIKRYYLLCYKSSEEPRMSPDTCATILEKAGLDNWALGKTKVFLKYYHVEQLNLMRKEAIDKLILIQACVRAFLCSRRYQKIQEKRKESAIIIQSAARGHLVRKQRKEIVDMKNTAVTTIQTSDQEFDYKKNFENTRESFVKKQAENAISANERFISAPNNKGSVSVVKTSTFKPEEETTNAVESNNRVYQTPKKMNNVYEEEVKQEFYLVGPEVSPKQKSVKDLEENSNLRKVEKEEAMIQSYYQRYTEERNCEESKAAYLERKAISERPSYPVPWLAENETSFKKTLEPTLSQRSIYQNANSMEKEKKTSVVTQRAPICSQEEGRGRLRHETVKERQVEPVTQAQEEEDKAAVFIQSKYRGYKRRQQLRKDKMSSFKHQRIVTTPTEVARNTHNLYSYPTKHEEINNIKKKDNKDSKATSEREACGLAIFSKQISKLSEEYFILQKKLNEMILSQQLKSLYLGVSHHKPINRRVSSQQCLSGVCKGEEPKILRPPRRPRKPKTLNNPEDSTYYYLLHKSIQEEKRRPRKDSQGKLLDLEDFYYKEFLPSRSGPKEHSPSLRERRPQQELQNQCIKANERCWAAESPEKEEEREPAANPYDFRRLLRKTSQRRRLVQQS
The target in assay [13] is Serine/threonine-protein kinase PAK 6 (Homo sapiens) (UniProt Q9NQU5). In words: Selectivity interaction (ProQinase) EUB0000171b PAK6. Particulars: at 1 µM.
In assay [14] the target is Cyclin-dependent kinase 5/CDK5 activator 1 (Homo sapiens) (UniProt Q00535+Q15078). In words: Selectivity interaction (ProQinase) EUB0000171b CDK5. It counts as protein-complex assay.
Chain of Cyclin-dependent kinase 5/CDK5 activator 1 (Homo sapiens) (Q00535 whole entry): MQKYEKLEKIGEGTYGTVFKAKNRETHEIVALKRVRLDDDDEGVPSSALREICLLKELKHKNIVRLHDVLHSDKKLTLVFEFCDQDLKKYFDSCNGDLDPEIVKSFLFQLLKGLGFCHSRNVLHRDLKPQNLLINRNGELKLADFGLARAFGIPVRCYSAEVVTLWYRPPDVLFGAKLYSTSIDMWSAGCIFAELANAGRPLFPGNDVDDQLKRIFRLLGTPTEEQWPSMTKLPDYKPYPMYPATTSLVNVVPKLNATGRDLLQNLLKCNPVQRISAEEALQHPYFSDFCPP
Chain of Cyclin-dependent kinase 5/CDK5 activator 1 (Homo sapiens) (Q15078 99-307 partner limits assumed): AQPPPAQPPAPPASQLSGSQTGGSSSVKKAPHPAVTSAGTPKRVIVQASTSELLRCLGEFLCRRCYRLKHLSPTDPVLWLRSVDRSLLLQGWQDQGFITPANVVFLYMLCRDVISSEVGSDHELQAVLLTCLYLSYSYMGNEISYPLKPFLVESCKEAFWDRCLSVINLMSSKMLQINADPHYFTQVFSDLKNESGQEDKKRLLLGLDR
For assay [15], the target named is Mitogen-activated protein kinase 10 (Homo sapiens, UniProt P53779). In words: Selectivity interaction (ProQinase) EUB0000171b MAPK10.
Chain of Mitogen-activated protein kinase 10 (P53779 whole entry): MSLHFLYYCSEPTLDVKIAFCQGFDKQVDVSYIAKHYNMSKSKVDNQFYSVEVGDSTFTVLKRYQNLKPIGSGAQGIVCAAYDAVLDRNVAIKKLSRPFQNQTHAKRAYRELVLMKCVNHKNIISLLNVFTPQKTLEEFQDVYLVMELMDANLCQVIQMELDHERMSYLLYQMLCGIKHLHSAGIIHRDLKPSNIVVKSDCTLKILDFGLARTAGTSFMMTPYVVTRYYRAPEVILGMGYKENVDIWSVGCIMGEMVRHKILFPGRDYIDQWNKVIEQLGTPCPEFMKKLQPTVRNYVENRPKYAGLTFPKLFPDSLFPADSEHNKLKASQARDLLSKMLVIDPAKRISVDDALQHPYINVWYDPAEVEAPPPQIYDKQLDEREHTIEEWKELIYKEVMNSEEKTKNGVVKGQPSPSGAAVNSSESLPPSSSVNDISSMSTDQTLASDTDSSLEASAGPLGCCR
In assay [16] the target is Tyrosine-protein kinase JAK1 (Homo sapiens, UniProt P23458). In words: Selectivity interaction (KinomeScan (DiscoverX)) EUB0001868a JAK1. Particulars: at 1 µM.
Assay [17] has as its target Mitogen-activated protein kinase 7 (Homo sapiens) (UniProt Q13164). In words: Selectivity interaction (KinomeScan (DiscoverX)) EUB0000655a MAPK7. Particulars: at 10 µM.
Assay [18] has as its target SRSF protein kinase 2 (Homo sapiens) (UniProt P78362). In words: Selectivity interaction (KinomeScan (DiscoverX)) EUB0000655a SRPK2. Particulars: at 10 µM.
For assay [19], the target named is T2, Discoidin domain-containing receptor 2 (Homo sapiens) (UniProt Q16832).
T2 sequence (whole entry): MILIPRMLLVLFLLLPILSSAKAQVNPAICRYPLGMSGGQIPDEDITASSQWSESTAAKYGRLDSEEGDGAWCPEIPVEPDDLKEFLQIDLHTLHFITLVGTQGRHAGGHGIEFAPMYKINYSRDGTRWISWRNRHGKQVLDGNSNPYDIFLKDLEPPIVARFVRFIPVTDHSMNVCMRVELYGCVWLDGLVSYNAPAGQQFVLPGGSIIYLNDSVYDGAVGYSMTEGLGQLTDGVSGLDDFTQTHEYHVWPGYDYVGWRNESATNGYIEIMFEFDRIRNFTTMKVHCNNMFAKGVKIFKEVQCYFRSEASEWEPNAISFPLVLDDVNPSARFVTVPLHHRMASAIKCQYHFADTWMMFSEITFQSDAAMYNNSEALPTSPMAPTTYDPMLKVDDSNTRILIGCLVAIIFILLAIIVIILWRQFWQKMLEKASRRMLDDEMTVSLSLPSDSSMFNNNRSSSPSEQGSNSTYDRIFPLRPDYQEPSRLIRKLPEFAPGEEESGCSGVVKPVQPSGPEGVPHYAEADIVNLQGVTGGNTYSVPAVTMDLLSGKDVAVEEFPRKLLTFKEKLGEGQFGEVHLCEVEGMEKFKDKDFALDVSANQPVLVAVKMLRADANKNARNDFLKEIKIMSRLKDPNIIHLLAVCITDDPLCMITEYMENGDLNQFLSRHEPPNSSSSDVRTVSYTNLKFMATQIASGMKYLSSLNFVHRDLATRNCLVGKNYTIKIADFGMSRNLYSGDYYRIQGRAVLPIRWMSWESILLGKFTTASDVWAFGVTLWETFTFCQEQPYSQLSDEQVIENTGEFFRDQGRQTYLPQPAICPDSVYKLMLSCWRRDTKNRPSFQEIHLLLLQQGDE
In words: Selectivity interaction (KinomeScan (DiscoverX)) EUB0000618a DDR2. Particulars: at 10 µM.

In assay [20] the target is Cyclin-dependent kinase 13 (Homo sapiens, UniProt Q14004). In words: Selectivity interaction (KinomeScan (DiscoverX)) EUB0001079a CDK13. Particulars: at 1 µM.
Chain of Cyclin-dependent kinase 13 (Q14004 whole entry, looked up): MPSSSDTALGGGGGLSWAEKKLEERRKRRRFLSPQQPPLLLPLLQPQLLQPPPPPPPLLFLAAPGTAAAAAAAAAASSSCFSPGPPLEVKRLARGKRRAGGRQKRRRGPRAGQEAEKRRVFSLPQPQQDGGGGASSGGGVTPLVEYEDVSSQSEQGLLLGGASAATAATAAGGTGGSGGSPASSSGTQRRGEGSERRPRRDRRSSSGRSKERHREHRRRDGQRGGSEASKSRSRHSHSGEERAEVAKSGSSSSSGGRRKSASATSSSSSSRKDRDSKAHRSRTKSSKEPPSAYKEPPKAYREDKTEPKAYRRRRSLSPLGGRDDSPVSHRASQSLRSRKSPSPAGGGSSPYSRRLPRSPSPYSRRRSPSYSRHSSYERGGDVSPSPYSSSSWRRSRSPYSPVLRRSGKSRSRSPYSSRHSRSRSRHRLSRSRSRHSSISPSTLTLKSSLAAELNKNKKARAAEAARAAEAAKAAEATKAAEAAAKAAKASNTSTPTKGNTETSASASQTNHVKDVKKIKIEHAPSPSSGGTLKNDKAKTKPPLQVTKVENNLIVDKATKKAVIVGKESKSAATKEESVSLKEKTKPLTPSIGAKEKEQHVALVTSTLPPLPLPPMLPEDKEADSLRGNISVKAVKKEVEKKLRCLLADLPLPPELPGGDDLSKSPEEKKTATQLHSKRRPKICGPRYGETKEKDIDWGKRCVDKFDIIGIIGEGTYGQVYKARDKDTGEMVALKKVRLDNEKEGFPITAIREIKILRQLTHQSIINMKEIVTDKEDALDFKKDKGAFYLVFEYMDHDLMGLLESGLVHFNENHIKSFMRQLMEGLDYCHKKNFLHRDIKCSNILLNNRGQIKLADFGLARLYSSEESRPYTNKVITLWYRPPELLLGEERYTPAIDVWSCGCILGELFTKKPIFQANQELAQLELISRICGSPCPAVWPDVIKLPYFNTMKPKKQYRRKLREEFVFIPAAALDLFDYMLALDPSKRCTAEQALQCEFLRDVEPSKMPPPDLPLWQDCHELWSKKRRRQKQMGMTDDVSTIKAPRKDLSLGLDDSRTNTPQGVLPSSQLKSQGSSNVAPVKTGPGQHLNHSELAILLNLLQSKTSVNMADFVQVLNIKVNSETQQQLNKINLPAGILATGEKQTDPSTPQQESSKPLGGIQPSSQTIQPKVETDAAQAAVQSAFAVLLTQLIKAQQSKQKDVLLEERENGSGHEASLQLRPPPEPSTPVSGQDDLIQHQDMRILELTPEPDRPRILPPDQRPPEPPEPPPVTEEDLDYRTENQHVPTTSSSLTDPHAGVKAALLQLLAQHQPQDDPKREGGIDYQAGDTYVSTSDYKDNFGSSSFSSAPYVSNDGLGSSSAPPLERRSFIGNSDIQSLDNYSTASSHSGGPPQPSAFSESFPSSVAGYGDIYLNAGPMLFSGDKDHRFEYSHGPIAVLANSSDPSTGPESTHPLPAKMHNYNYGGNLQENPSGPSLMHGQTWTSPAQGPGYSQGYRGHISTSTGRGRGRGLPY
Assay [21] deals with Receptor-type tyrosine-protein kinase FLT3 (Homo sapiens), P36888 [UNDEFINED MUTATION]. In words: Selectivity interaction (KinomeScan (DiscoverX)) EUB0001079a FLT3. Particulars: at 1 µM.
In assay [22] the target is Serine/threonine-protein kinase MRCK gamma (Homo sapiens) (UniProt Q6DT37). In words: Selectivity interaction (KinomeScan (DiscoverX)) EUB0001079a CDC42BPG. Particulars: at 1 µM.
Assay [23] deals with Ribosomal protein S6 kinase alpha-2 (Homo sapiens) (UniProt Q15349). In words: Selectivity interaction (Kinome Scan (DiscoverX)) EUB0000229b RPS6KA2. To be noted: at 10 µM.

Chain of Mitogen-activated protein kinase 1 (P28482 whole entry): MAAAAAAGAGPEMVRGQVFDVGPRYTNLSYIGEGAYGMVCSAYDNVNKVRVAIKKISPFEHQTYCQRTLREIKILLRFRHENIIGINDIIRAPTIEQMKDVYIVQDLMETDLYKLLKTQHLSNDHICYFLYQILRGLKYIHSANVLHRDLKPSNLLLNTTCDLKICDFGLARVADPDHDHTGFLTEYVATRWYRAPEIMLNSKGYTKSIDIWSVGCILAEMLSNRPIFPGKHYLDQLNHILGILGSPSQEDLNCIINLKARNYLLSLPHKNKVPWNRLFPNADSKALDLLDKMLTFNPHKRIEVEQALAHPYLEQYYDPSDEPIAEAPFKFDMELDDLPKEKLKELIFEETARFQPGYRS

Consider `COCC(=O)NC/C=C/c1ccc2ncnc(Nc3ccc(Oc4ccc(C)nc4)c(C)c3)c2c1` [CP-724714], for which the % of control in assay [1] turned out to be 100%; in assay [2] it was 77%; in [3], 87%. For `N#Cc1cccc(-c2c[nH]c3ncnc(N4CCOCC4)c23)c1`, in [4], the % of inhibition is 7%.

With `O=C(NOC[C@H](O)CO)c1ccc(F)c(F)c1Nc1ccc(I)cc1F`, in assay [5], the % of control is 66%. `CNC(=O)Nc1ccc(-c2nc(N3CC4CCC(C3)O4)c3cnn(C4CCC5(CC4)OCCO5)c3n2)cc1` gave a % of control in assay [6] of 96%. Regarding `Cc1cc([C@@H](C)Nc2ccccc2C(=O)O)c2nc(N3CCOCC3)cc(=O)n2c1` [AZD-6482], the % of control in [7] turned out to be 100%. With `CC[C@@H]1[C@H](F)C(=O)N[C@@H]1COc1nccc2cc(C(N)=O)c(OC)cc12` [ZIMLOVISERTIB], the figures for the % of inhibition in assay [8] and in assay [9] were 8.54% and -5.2%, respectively.

`CN(C(=O)c1cnn2cccnc12)c1cc2c(cc1N1CCOCC1)C(=O)N(C[C@@H](F)C(C)(C)O)C2` displayed a dTM in assay [10] of -1 K. `C=CC(=O)Nc1cc(-n2c(=O)ccc3cnc4ccc(-c5ccc(NS(C)(=O)=O)cc5)cc4c32)ccc1C`: the % of control in assay [11] (at 1 µM) was determined as 100%; in assay [11] (at 10 µM), 76%; in assay [12] (at 1 µM), 100%; in assay [12] (at 10 µM) it was 85%. Take `C=CC(=O)Nc1cccc(C(=O)Nc2ccc(Nc3cc(-c4[nH]c(SC)nc4C)ccn3)cc2)c1`: the % of control in assay [13] came to 90%; in assay [14] (at 1 µM), 77%; in assay [14] (at 5 µM), 54%; in assay [15] (at 1 µM), 3%; in [15] (at 5 µM), 0%. In the case of `Cc1cc(-c2ccnc(Nc3cnn(C)c3)n2)ccc1CNC(=O)N1CC(OC(C)C)C1`, the % of control in assay [16] was determined as 29%. As to `CN(C)CCOc1ccc(-c2nc(-c3ccncc3)c(-c3ccc4c(c3)CC/C4=N\O)[nH]2)cc1`, the % of control was 97% in assay [17] and 100% in [18]. As to `O[C@H]1CC[C@H](Nc2ncc3nc(Nc4c(F)cc(F)cc4F)n([C@H]4CCOC4)c3n2)CC1`, in assay [19], the % of control was determined as 89%. Turning to `Nc1cnc(N2CCc3cc(S(=O)(=O)Nc4c(F)cc(Cl)cc4F)cc(N4CCCC4=O)c32)nc1` [TP-020n], the % of control in assay [20] is 100%; in assay [21], 96%; in assay [22] it was 100%.

In the case of `COc1cc(N(C)c2ccnc3ccc(C(F)(F)F)cc23)cc(OC)c1OC`, the % binding in assay [23] stood at 74%.
